Laboratory results reported in US20100160356A1, “NOVEL CYCLOBUTYL COMPOUNDS AS KINASE INHIBITORS” (priority 2006, published 2010).

Molecular target: T1, SGK1 (Homo sapiens, UniProt O00141)
T1 sequence (O00141 1-431): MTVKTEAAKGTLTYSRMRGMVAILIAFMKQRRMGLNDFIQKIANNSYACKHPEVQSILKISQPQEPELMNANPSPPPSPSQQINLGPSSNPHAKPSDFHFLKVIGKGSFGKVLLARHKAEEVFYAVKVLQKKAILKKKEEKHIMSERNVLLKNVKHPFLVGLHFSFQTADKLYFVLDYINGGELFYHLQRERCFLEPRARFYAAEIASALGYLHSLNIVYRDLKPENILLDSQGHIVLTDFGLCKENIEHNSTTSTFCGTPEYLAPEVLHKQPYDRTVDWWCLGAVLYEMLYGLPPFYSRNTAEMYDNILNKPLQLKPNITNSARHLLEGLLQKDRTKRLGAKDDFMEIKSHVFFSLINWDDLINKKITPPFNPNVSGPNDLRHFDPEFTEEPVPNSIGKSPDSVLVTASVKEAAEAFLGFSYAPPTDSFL
Assay: Inhibition of SGK1 (flashplate assay)
Format: biochemical
Conditions: flashplate method
Experimental: The test plates used are 384-well flashplate microtitre plates from Perkin Elmer (USA). The components of the kinase reaction are pipetted into the assay plate. The SGK1 kinase is incubated for 3 hr. with radioactively labelled ^33P-ATP in the presence and absence of test substances in a total volume of 100 μl at room temperature together with biotinylated poly(Glu, Tyr)4:1. The reaction is terminated using 25 μl of a 200 mM EDTA solution. After incubation for a further 30 min at room temperature, the supernatants are removed by suction, and the wells are washed three times with 100 μl of 0.9% NaCl solution each time. The radioactivity is measured using a Topcount scintillation counter (PerkinElmer, USA). IC50 values are calculated using the RS1 computer program.

IC50 [µM] | SMILES
6.1 | NCC1CC(n2cc(-c3cc4ccccc4o3)c3c(N)ncnc32)C1 (centres unmarked) [Compound 37]
7.4 | Nc1ncnc2c1c(-c1cccc(O)c1)cn2C1CC(CN2CCCC2)C1 (centres unmarked) [Compound 2, 3-[4-Amino-7-(3-pyrrolidin-1-ylmethylcyclobutyl)-7H-pyrrolo[2,3-d]pyrimidin-5-yl]phenol]
